In ChEMBL document CHEMBL1155739, “New indole alkaloids from the bark of Nauclea orientalis” (J Nat Prod, 2001):
In brackets after ≈: the same amount, converted by molar mass. Activity calls are given as the source filed them. No cut-off for these calls is given here.

Assays:
[1] = test system: Candida albicans; test: (§1) Inhibition of Candida albicans secreted aspartic protease
[2] = as §1

C=C[C@@H]1C2=C[C@H]3c4[nH]c5ccccc5c4CCN3C(=O)C2=C(O)O[C@H]1O[C@@H]1O[C@H](CO)[C@@H](O)[C@H](O)[C@H]1O
Activity [1]: inactive

CC(C)CC(=O)N[C@H](C(=O)N[C@H](C(=O)N[C@@H](CC(C)C)[C@@H](O)CC(=O)N[C@@H](C)C(=O)N[C@@H](CC(C)C)[C@@H](O)CC(=O)O)C(C)C)C(C)C [PEPSTATIN]
IC50 [2]: 6 ng/mL (≈ 8.75 nM)
